Laboratory results reported in patent US9642909B2, “Pharmaceutical compositions comprising attenuated Plasmodium sporozoites and glycolipid adjuvants” (Sanaria Inc., priority 2011, dated 2017).
“And” between values parts separate entries of the source, which are not always exact repeats. Identical values can stand only once. Like-named read-outs stand apart in the source and are kept apart here.

Columns and labels:
[1] = tested on: pathogenic P. yoelii sporozoites; assay: Protection of BALB/c mice against pathogenic P. yoelii sporozoite challenge after a single IV dose of irr PySPZ with or without 7DW8-5 IP; assay type: in vivo
Protocol: To determine if the adjuvant 7DW8-5 could decrease the number of doses of irr PySPZ required to confer protection, a suboptimal dosing regimen was performed. irr PySPZ (17NXL) were dissected from the salivary glands of A. stephensi mosquitoes and injected intravenously (IV) into BALB/c mice as a single dose of either of 5×10^4 or 1×10^4 sporozoites. Two μg of 7DW8-5 was concurrently administered intraperitoneally (IP) in some mice. Fourteen days later, mice were challenged with 100 non-irradiated pathogenic P. yoelii sporozoites. Protection was assessed by Giemsa-stained blood smears and was defined as the complete absence of parasitemia 7 and 14 days post infection.
A second experiment was performed to confirm the results shown in Example 1. […] Again, adjuvant in the absence of antigen had no effect.
Using the single dose methodology of Example 1 with radiation attenuated Py sporozoites that have been purified using the purification procedure disclosed in Sim et al. (U.S. Pat. No. 8,043,625, incorporated in its entirety herein by reference) a third experiment was performed. Using 1×10^4 purified sporozoites administered IV in a single dose, 3 out of 10 mice were protected, whereas 7 of 10 mice were protected when the adjuvant was concurrently administered IP.
To determine the optimal single dose of attenuated sporozoites (in conjunction with 7DW8-5 concurrently administered distally IP) that confers protection by the IV route, mice were injected IV with 0, 2500, 5000, 10,000 and 20,000 sporozoites. Two μg of 7DW8-5 were injected IP.

[2] = tested on: iNKT cells; conditions: human; cited from earlier work
[3] = tested on: pathogenic P. yoelii sporozoites; conditions: versus α-GalCer, cited from earlier work
[4] = tested on: pathogenic P. yoelii sporozoites; assay: Protection of BALB/c mice after intradermal immunization with irr PySPZ mixed with 7DW8-5 at base of tail; assay type: in vivo
Protocol: To determine whether protective immunogenicity of attenuated sporozoites is maintained or enhanced in the presence of 7DW8-5, mice were immunized by intradermal (ID) injection alone, with 2 doses at 2-week intervals of 15,000, 10,000, 5,000 and 2,500 sporozoites and unlike Examples 1-5, 1 μg 7DW8-5 was mixed as a composition with sporozoites and the composition of adjuvant and sporozoites was delivered ID at the base of the tail. With 2 doses of 15,000 sporozoites in the presence of adjuvant 100% of the mice were protected, and at lower doses of sporozoites 60-80% of the mice were protected. In the absence of adjuvant, only 40% of mice receiving 2 doses of 15,000 sporozoites were protected.
Protection conferred by a single dose of a composition of 1 μg 7DW8-5 adjuvant and varying amounts of sporozoites delivered ID was measured. For this 15,000 and 30,000 sporozoites were administered to mice ID as described above. These doses were partially protective at 60% and 40% respectively.
The next step in development was to assess purified irr PySPZ BALB/c/mice were immunized with irr PySPZ purified as described, in the presence or absence of 7DW8-5 adjuvant.

[5] = tested on: iNKT cells; conditions: mouse; cited from earlier work
[6] = tested on: IFN-γ-secreting CS-specific CD8+ cells; conditions: irradiated sporozoites SC with α-GalCer by the same route vs without; cited from earlier work
[7] = biological target: CD1d (Homo sapiens, UniProt P15813); conditions: cited from earlier work
[8] = pre-loaded autologous PBMCs or direct injection; cited from earlier work
[9] = summary of Examples 1-3, one dose irr PySPZ IV, 7DW8-5 IP where given

CD1d, sequence (P15813 20-335, species assumed): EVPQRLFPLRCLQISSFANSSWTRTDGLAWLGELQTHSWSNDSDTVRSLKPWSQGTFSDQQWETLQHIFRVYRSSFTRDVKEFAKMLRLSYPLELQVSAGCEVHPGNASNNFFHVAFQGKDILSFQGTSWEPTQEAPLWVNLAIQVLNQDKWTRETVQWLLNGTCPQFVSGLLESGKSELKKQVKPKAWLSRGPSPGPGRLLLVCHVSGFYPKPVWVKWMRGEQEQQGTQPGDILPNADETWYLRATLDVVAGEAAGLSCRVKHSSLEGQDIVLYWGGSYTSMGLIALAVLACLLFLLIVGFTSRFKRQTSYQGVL
CD1d, sequence (P61769 21-119 partner, species assumed): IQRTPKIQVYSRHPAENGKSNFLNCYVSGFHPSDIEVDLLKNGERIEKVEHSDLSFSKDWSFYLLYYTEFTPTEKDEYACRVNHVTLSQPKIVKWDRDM

Structure (SMILES)	# protected/# challenged ([1]; Example 1, 2 μg 7DW8-5 IP alone, no sporozoites)	# protected/# challenged ([1]; Example 2, 2 μg 7DW8-5 IP alone, no sporozoites)	# protected/# challenged ([1]; Example 3, 2 μg 7DW8-5 IP alone, no sporozoites)	First Challenge # protected/# re-challenged ([1]; Example 4 table, first challenge, 2 μg 7DW8-5 IP alone)	# protected/# challenged ([1]; Example 5, 0 sporozoites, 2 μg 7DW8-5 IP)	percent protected [1, 9] [%]	protected/challenged [1, 9]	ability to elicit cytokine production from iNKT cells [2]	malaria-specific humoral response ([3]; co-administered IM with adenovirus vaccine)	malaria-specific CD8+ T cell response ([3]; co-administered IM with suboptimal dose of adenovirus vaccine)	adjuvant effect in enhancing protective efficacy ([3]; single immunizing dose of adenovirus recombinant vaccine)	# protected/# challenged ([4]; Example 6, 0 sporozoites, 1 μg 7DW8-5 per mouse ID)	protection ([4]; Example 8, adjuvant alone)	ability to elicit cytokine production from iNKT cells [5]	increase in number of IFN-γ-secreting CS-specific CD8+ cells [6]	activation of iNKT cells [2]	affinity for CD1d [7]	activation of iNKT cells [5]	safety and tolerability [8]
CCCCCCCCCCCCCC[C@@H](O)[C@@H](O)[C@H](COC1OC(CO)C(O)C(O)C1O)NC(=O)CCCCCCCCCCc1ccc(F)cc1 (stereo partly shown) [7DW8-5]	no protection and 0/5	no effect and 0/5	0/5	0/5	0/5	0	0/15	superior ability	equally if not slightly stronger than α-GalCer	significantly more than α-GalCer	significantly stronger adjuvant effect than α-GalCer	0/5	No protection	superior ability					
CCCCCCCCCCCCCCCCCCCCCCCCCC(=O)N[C@@H](CO[C@H]1O[C@H](CO)[C@H](O)[C@H](O)[C@H]1O)[C@H](O)[C@H](O)CCCCCCCCCCCCCC [α-GalCer, α-galactosylceramide]															seven fold	potent activator	high affinity	potent activator	safe and well tolerated
